Key:
[1] = system: human granulosa/luteal cells; experiment: progesterone secretion of human granulosa/luteal cells; type: cell-based; conditions: 5-hour incubation, 1 μM
Description: Luteal cell cultures are an established test method for the paracrine effect of steroids. Such cells are not available from humans, since all surgical procedures in which biopsies can be taken are always performed at the follicular phase to avoid the risk of an undetected pregnancy. However, these granulosa/luteal cells become available in the course of in vitro fertilization programs and are maintained in culture, and they behave very much like luteal cells in terms of receptor population and secretory function. An estrogenic effect of vitex agnus castus was tested with this human in vitro testing system. […] FIG. 5: […] The * indicates a significant deviation from the (culture) medium control. FIG. 6 summarizes the effect of vitex agnus castus extracts upon progesterone secretion under this testing system after a 5-hour incubation.

porcine luteal cells = experiment: progesterone secretion of porcine luteal cells; type: cell-based; conditions: anti-estrogen alone
Description: To reinforce this conclusion, the cells were incubated with vitex agnus castus extract along with the anti-estrogen tamoxifen.

Row | Compound | effect on progesterone secretion [1] | effect on progesterone excretion, tamoxifen alone (porcine luteal cells)
1 | C[C@]12CC[C@@H]3c4ccc(O)cc4CC[C@H]3[C@@H]1CC[C@H]2O [17-alpha estradiol, estradiol 17-alpha] | no effect | 
2 | CC/C(=C(\c1ccccc1)c1ccc(OCCN(C)C)cc1)c1ccccc1 [tamoxifen] |  | without effect

Reference: patent publication US20050220900A1, “Use of extracts containing phytoestrogen selectively modulating estrogen-receptor-beta” (priority 2002, published 2005)
